Experimental findings from patent publication US8236762B2, “Peptide-cytotoxic conjugates” (IPSEN Pharma S.A.S., priority 2006, dated 2012) are described below.

The nature of data set [1]: Half-life determination in mouse plasma (LC-MS). In kind it is in vitro ADME. Particulars: 37° C. How it is done: (§1) Samples containing approximately 50 μg/ml up to and including approximately 500 μg/ml of test compound according to Formula IA or IB or II was added to 450 μl human or mouse plasma, vortexed briefly and incubated at 37° C. At various time intervals, e.g., 0, 0.5, 1, 2, 4, 6, 8, 24, 36 and 48 hours, 50 μl of the compound-plasma mixture was added to 150 μl acetonitrile in a microcentrifuge tube. The mixture was vortexed, centrifuged for 5 minutes at 10K RPM, and 135 μl of supernatant was transferred to an injection vial. The recovered supernatant was analyzed by using a liquid chromatography-mass spectrophotometer system (LC-MS) consisting of a Finnigan Deca XP® mass spectrometer with an ESI probe at the positive ion mode. HPLC separation was carried out on a Luna 3μ C8 (2)® 3×50 mm column with a gradient decreasing from 100% A to 80% B for 10 minutes at a flow rate of 0.25 ml/min. Buffer A was 0.1% acetic acid in water and buffer B was 0.1% acetic acid acetonitrile.

Data set [2] can be described thus: Half-life determination in human plasma (LC-MS). The class given is in vitro ADME. As to conditions: 37° C. As to the method:
as §1

Data set [3] addresses T1, hSSTR-1 (Homo sapiens, UniProt P30872).
T1 construct: expressed in transfected cells; host or cells: CHO-K1
The data set can be described thus: Somatostatin receptor radioligand binding, hSSTR-1 (CHO-K1 membranes). Particulars: read-out: Ki hSSTR1 ± (SEM). How it is done: Membranes for in vitro receptor binding assays were obtained by homogenizing (Polytron setting 6, 15 sec) CHO-K1 cells expressing human somatostatin receptor subtypes hSSTR-1, hSSTR-2, hSSTR-3, hSSTR-4 or hSSTR-5 in ice-cold 50 mM Tris-HCl. The homogenized cells were centrifuged twice at 39,000 g for 10 minutes with an intermediate resuspension in fresh buffer. The final pellets were resuspended in 10 mM Tris-HCl to prepare the cell membrane homogenate for use in the binding assay.
The final assay volume was 0.3 ml.
The cell membrane homogenate was incubated with the radioligands for 90 minutes at 25° C. The incubations were terminated by rapid filtration through GF/C filters pre-soaked in 0.3% polyethylenimine using a Brandel® filtration manifold (Gaithersberg, Md., U.S.A.). Each tube and filter was washed three times with 5-ml aliquots of ice-cold buffer. Specific binding was defined as the total radioligand bound minus that bound in the presence of 1000 nM SRIF-14 (for hSSTR-1, hSSTR-3, hSSTR-4 or hSSTR-5), or 1000 nM DPhe-c(Cys-Tyr-D-Trp-Lys-Abu-Cys)-Thr-NH2 for hSSTR-2.

The target of data set [4] is T2, hSSTR-3 (Homo sapiens, UniProt P32745).
T2 construct: expressed in transfected cells; host or cells: CHO-K1
The data set can be described thus: Somatostatin receptor radioligand binding, hSSTR-3 (CHO-K1 membranes). Particulars: read-out: Ki hSSTR3 ± (SEM).
Description: (§2) For the hSSTR-1, hSSTR-3, and hSSTR-4 assays, aliquots of the membrane preparations were incubated for 90 minutes at 25° C. with 0.05 nM [^125I-Tyr11]SRIF-14 in 50 mM HEPES (pH 7.4) buffer containing 0.2% BSA and 5 mM MgCl2. The final assay volume was 0.3 ml. For the hSSTR-2 and hSSTR-5 assays, [^125I]-[4-(2-hydroxyethyl)]-1-piperazinylacetyl-D-Phe-c(Cys-Tyr-D-Trp-Lys-Abu-Cys)-Thr-NH2 (0.05 nM) and [^125I]-D-Phe-c(Cys-Tyr-D-Trp-Lys-Val-Cys)-Thr-NH2 were employed as the radioligands, respectively.

Data set [5] deals with T3, hSSTR-4 (Homo sapiens, UniProt P31391).
T3 construct: expressed in transfected cells; host or cells: CHO-K1
The data set can be described thus: Somatostatin receptor radioligand binding, hSSTR-4 (CHO-K1 membranes). As to conditions: read-out: Ki hSSTR4 ± (SEM).
Description: as §2

The mark [6] stands for this setting: [125I-Tyr11]SRIF-14, value of 1000 indicates at least 1000.

Read-outs that look alike come from different tables or passages of the source.

T3 sequence (P31391 whole entry): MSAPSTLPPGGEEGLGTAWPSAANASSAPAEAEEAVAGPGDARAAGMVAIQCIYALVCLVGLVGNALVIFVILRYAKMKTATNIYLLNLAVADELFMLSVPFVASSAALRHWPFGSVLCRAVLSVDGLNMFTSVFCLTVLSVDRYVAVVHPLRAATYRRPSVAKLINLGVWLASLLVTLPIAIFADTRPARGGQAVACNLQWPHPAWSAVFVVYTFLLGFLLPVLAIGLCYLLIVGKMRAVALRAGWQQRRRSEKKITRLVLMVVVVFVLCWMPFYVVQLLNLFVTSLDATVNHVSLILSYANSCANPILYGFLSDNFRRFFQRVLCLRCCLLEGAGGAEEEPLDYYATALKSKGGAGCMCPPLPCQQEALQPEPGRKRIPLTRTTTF
T2 sequence (P32745 whole entry): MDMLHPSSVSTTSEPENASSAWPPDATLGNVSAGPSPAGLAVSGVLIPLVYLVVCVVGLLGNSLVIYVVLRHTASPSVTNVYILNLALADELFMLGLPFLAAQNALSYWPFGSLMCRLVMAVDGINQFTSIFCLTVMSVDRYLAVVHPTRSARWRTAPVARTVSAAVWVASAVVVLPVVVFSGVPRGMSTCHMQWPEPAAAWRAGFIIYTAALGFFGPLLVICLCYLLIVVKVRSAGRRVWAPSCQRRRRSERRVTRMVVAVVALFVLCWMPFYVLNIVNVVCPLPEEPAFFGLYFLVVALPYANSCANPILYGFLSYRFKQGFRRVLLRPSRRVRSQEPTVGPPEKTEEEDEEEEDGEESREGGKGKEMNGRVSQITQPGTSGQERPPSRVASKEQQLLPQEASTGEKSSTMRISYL
T1 sequence (P30872 whole entry): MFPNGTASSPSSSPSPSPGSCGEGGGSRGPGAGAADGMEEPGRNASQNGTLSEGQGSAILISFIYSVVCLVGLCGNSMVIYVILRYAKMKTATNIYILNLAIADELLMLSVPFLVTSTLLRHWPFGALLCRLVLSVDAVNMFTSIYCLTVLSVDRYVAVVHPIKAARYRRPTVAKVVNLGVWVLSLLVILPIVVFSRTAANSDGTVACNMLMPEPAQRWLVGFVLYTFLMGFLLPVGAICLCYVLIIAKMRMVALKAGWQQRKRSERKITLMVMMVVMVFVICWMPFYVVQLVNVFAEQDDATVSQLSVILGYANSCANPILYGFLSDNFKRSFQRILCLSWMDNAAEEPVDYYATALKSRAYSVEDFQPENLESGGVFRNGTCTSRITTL

As usually defined, the half-life is how long it takes for the measured level to halve. Low readings indicate rapid decline, high ones slow decline. As usually defined, the Ki is the equilibrium dissociation constant of an inhibitor or competing ligand from its target. Take `CC[C@@H]1NC(=O)[C@H](CCCCN)NC(=O)[C@@H](Cc2c[nH]c3ccccc23)NC(=O)[C@H](Cc2ccc(O)cc2)NC(=O)[C@@H](NC(=O)[C@@H](Cc2ccccc2)NC(=O)CN2CCN(CCNC(=O)COCCOCCNC(=O)COCCOCCNC(=O)COCCOCCNC(=O)COCCOCCNC(=O)CCC(=O)N[C@@H](CC3CCCCC3)C(=O)O[C@]3(CC)C(=O)OCc4c3cc3n(c4=O)Cc4cc5ccccc5nc4-3)CC2)CSSC[C@@H](C(=O)N[C@H](C(N)=O)[C@@H](C)O)NC1=O` [Example 1, Camptothecin-rvCha-Suc-(Doc)4-Aepa-DPhe-c(Cys-Tyr-DTrp-Lys-Abu-Cys)-Thr-NH2]: the half-life is 120 min in data set [1] and 282 min in data set [2]. Further, the Ki was no less than 1000 nM in data set [3], 155 nM in data set [4] and no less than 1000 nM in data set [5].

Turning to `CC[C@@H]1NC(=O)[C@H](CCCCN)NC(=O)[C@@H](Cc2c[nH]c3ccccc23)NC(=O)[C@H](Cc2ccc(O)cc2)NC(=O)[C@@H](NC(=O)[C@@H](Cc2ccccc2)NC(=O)CN2CCN(CCNC(=O)COCCOCCNC(=O)COCCOCCNC(=O)COCCOCCNC(=O)COCCOCCNC(=O)CCC(=O)N[C@@H](CCCNC(=N)N)C(=O)O[C@]3(CC)C(=O)OCc4c3cc3n(c4=O)Cc4cc5ccccc5nc4-3)CC2)CSSC[C@@H](C(=O)N[C@H](C(N)=O)[C@@H](C)O)NC1=O` [Example 7, Camptothecin-rvArg-Suc-(Doc)4-Aepa-D-Phe-c(Cys-Tyr-D-Trp-Lys-Abu-Cys)-Thr-NH2], the values for the half-life in data set [1] and in data set [2] were 72 min and 90 min, respectively. Besides, the Ki is no less than 1000 nM in data set [3], 479 nM in data set [4] and no less than 1000 nM in data set [5].

Consider `CC[C@@H]1NC(=O)[C@H](CCCCN)NC(=O)[C@@H](Cc2c[nH]c3ccccc23)NC(=O)[C@H](Cc2ccc(O)cc2)NC(=O)[C@@H](NC(=O)[C@@H](Cc2ccccc2)NC(=O)CN2CCN(CCNC(=O)COCCOCCNC(=O)COCCOCCNC(=O)COCCOCCNC(=O)COCCOCCNC(=O)CCC(=O)NCCCCC(=O)O[C@]3(CC)C(=O)OCc4c3cc3n(c4=O)Cc4cc5ccccc5nc4-3)CC2)CSSC[C@@H](C(=O)N[C@H](C(N)=O)[C@@H](C)O)NC1=O` [Example 11, Camptothecin-rvApn-Suc-(Doc)4-Aepa-D-Phe-c(Cys-Tyr-D-Trp-Lys-Abu-Cys)-Thr-NH2], for which the half-life in data set [1] is 222 min; in data set [2], 300 min. For the same molecule, the Ki in data set [3] and in data set [5] was no less than 1000 nM in each case.

For `CC[C@@H]1NC(=O)[C@H](CCCCN)NC(=O)[C@@H](Cc2c[nH]c3ccccc23)NC(=O)[C@H](Cc2ccc(O)cc2)NC(=O)[C@@H](NC(=O)[C@@H](Cc2ccccc2)NC(=O)CN2CCN(CCNC(=O)COCCOCCNC(=O)COCCOCCNC(=O)COCCOCCNC(=O)COCCOCCNC(=O)CCC(=O)N[C@@H](Cc3ccccc3)C(=O)O[C@]3(CC)C(=O)OCc4c3cc3n(c4=O)Cc4cc5ccccc5nc4-3)CC2)CSSC[C@@H](C(=O)N[C@H](C(N)=O)[C@@H](C)O)NC1=O` [Example 10, Camptothecin-rvPhe-Suc-(Doc)4-Aepa-D-Phe-c(Cys-Tyr-D-Trp-Lys-Abu-Cys)-Thr-NH2], the half-life in data set [1] was 144 min; in data set [2], 18 min. Moreover, the Ki in data set [3] and in data set [5] was no less than 1000 nM each time.

Turning to “Camptothecin-rvD-Asp-Suc-(Doc)4-Aepa-D-Phe-c(Cys-Tyr-D-Trp-Lys-Abu-Cys)-Thr-NH2 Camptothecin-rvAsp-Suc-(Doc)4-Aepa-D-Phe-c(Cys-Tyr-D-Trp-Lys-Abu-Cys)-Thr-NH2 [5A′]”, the Ki in data set [3] (setting [6]), in data set [4] (setting [6]) and in data set [5] (setting [6]) was no less than 1000 nM each time.

As to `CC[C@@H]1NC(=O)[C@H](CCCCN)NC(=O)[C@@H](Cc2c[nH]c3ccccc23)NC(=O)[C@H](Cc2ccc(O)cc2)NC(=O)[C@@H](NC(=O)[C@@H](Cc2ccccc2)NC(=O)CN2CCN(CCNC(=O)COCCOCCNC(=O)COCCOCCNC(=O)COCCOCCNC(=O)COCCOCCNC(=O)CCC(=O)N[C@@H](C)C(=O)O[C@]3(CC)C(=O)OCc4c3cc3n(c4=O)Cc4cc5ccccc5nc4-3)CC2)CSSC[C@@H](C(=O)N[C@H](C(N)=O)[C@@H](C)O)NC1=O` [Example 14, Camptothecin-rvAla-Suc-(Doc)4-Aepa-D-Phe-c(Cys-Tyr-D-Trp-Lys-Abu-Cys)-Thr-NH2], the results for the half-life in data set [1] and in data set [2] were 276 min and 78 min, respectively. In addition, the Ki in data set [3], in data set [4] and in data set [5] was no less than 1000 nM each time.

Regarding `CC[C@@H]1NC(=O)[C@H](CCCCN)NC(=O)[C@@H](Cc2c[nH]c3ccccc23)NC(=O)[C@H](Cc2ccc(O)cc2)NC(=O)[C@@H](NC(=O)[C@@H](Cc2ccccc2)NC(=O)CN2CCN(CCNC(=O)COCCOCCNC(=O)COCCOCCNC(=O)COCCOCCNC(=O)COCCOCCNC(=O)CCC(=O)N[C@H](C(=O)O[C@]3(CC)C(=O)OCc4c3cc3n(c4=O)Cc4cc5ccccc5nc4-3)C(C)C)CC2)CSSC[C@@H](C(=O)N[C@H](C(N)=O)[C@@H](C)O)NC1=O` [Example 15, Camptothecin-rvVal-Suc-(Doc)4-Aepa-D-Phe-c(Cys-Tyr-D-Trp-Lys-Abu-Cys)-Thr-NH2], the half-life was 300 min in data set [1] and 24 min in data set [2]. Also, the Ki in data set [3] and in data set [5] was no less than 1000 nM each time.

Consider `CC[C@@H]1NC(=O)[C@H](CCCCN)NC(=O)[C@@H](Cc2c[nH]c3ccccc23)NC(=O)[C@H](Cc2ccc(O)cc2)NC(=O)[C@@H](NC(=O)[C@@H](Cc2ccccc2)NC(=O)CN2CCN(CCNC(=O)COCCOCCNC(=O)COCCOCCNC(=O)COCCOCCNC(=O)COCCOCCNC(=O)CCC(=O)N[C@@H](C(=O)O[C@]3(CC)C(=O)OCc4c3cc3n(c4=O)Cc4cc5ccccc5nc4-3)C(C)C)CC2)CSSC[C@@H](C(=O)N[C@H](C(N)=O)[C@@H](C)O)NC1=O` [Example 13, Camptothecin-rvD-Val-Suc-(Doc)4-Aepa-D-Phe-c(Cys-Tyr-D-Trp-Lys-Abu-Cys)-Thr-NH2], for which the results for the half-life in data set [1] and in data set [2] were 462 min and 18 min, respectively. For the same molecule, the Ki in data set [3] and in data set [5] was no less than 1000 nM in each case.

`CC[C@@H]1NC(=O)[C@H](CCCCN)NC(=O)[C@@H](Cc2c[nH]c3ccccc23)NC(=O)[C@H](Cc2ccc(O)cc2)NC(=O)[C@@H](NC(=O)[C@@H](Cc2ccccc2)NC(=O)CN2CCN(CCNC(=O)COCCOCCNC(=O)COCCOCCNC(=O)COCCOCCNC(=O)COCCOCCNC(=O)CCCC(=O)O[C@]3(CC)C(=O)OCc4c3cc3n(c4=O)Cc4cc5ccccc5nc4-3)CC2)CSSC[C@@H](C(=O)N[C@H](C(N)=O)[C@@H](C)O)NC1=O` [Example 16, Camptothecin-Glut-(Doc)4-Aepa-D-Phe-c(Cys-Tyr-D-Trp-Lys-Abu-Cys)-Thr-NH2]: the half-life in data set [1] is 252 min; in data set [2], 216 min. For the same molecule, the inhibitory constant (Ki) in data set [3] and in data set [5] was no less than 1000 nM throughout.
